From patent US20240196886A1, “ANTIBACTERIAL AND/OR ANTIVIRAL COATINGS” (CODIKOAT LTD, priority 2021, published 2024)

Experiments:
[1] = test system: murine coronavirus (MHV); test: Powdered alcohol mixed directly with MHV, L929 cell infection/TCID50 assay; assay type: cell-based, Mouse Hepatitis Virus; conditions: FIG. 6; CD encapsulated ethanol vs gamma-CD alone
Experimental: The powders obtained in Example 1 were tested for their effectiveness in inactivating the murine coronavirus in 5 minutes using L929 cells. L929 cells at 5×10^5 cells/ml concentration in 100 μl volume in a 96 wells format were used. First, the virus stock was diluted 10 times in 1×PBS. Then 20 μl MHV (multiplicity of infection [MOI] 3.0) was mixed with 10 mg and 20 mg powdered alcohol for 5 minutes at room temperature with repetitive pipetting to maximise the interaction between the virus and powdered alcohol. To mitigate the potential side effects of the powdered alcohol on L929 cells, powder treated cell culture media (cDMEM) was prepared as a control. After recovering the virus and the control media from the mixture, treated samples (triplicates) were immediately diluted in 20 μl cDMEM, thereby bringing the final MOI to 1.0. In a 96 wells format, 8 serial dilutions (DF=5.0) were prepared per sample together with non-treated virus and cell culture media (cDMEM) as positive and negative controls, respectively. Cell infection phenotype as cell death and cytopathic effect (CPE) was observed under a benchtop light microscope (20× magnification) at 24-, 48- and 72-hours post infection (hpi) intervals (FIG. 4). TCID50/ml values per experiment were calculated at 72 hpi using Reed&Muench Calculator. […]

[2] = test system: cell lines
[3] = test system: cell lines; test: Toxicity on cell lines seen in the antiviral experiments; conditions: 8% PVA + glutaraldehyde coatings

With `OC[C@H]1O[C@@H]2O[C@H]3[C@H](O)[C@@H](O)[C@@H](O[C@H]4[C@H](O)[C@@H](O)[C@@H](O[C@H]5[C@H](O)[C@@H](O)[C@@H](O[C@H]6[C@H](O)[C@@H](O)[C@@H](O[C@H]7[C@H](O)[C@@H](O)[C@@H](O[C@H]8[C@H](O)[C@@H](O)[C@@H](O[C@H]9[C@H](O)[C@@H](O)[C@@H](O[C@H]1[C@H](O)[C@H]2O)O[C@@H]9CO)O[C@@H]8CO)O[C@@H]7CO)O[C@@H]6CO)O[C@@H]5CO)O[C@@H]4CO)O[C@@H]3CO` [CD alone, gamma-cyclodextrin] the log reduction [1] was 1 log.
For `OCl` [HOCl, hypochlorous acid], the “cell death and toxicity” value [2] was “cell death and toxicity were observed”.
For `O=CCCCC=O` [glutaraldehyde], the “glutaraldehyde concentration above which toxicity on cell lines was observed” value [3] was “higher than 0.7%”.
